Experiment [1] concerns AMARE. As to the kind of experiment: Greenhouse test, post-emergence treatment. The class given is in vivo, Amaranthus retroflexus. An excerpt:
(§1) The seeds of the test plants were sown separately for each species. For the post-emergence treatment, the test plants were first grown to a height of […], depending on the plant habit, and only then treated with the active ingredients which had been suspended or emulsified in water. For this purpose, the test plants were either sown directly and grown in the same containers, or they were first grown separately as seedlings and transplanted into the test containers a few days prior to treatment. Depending on the species, the plants were kept at 10-25° C. or 20-35° C., respectively. The test period extended over 2 to 4 weeks. During this time, the plants were tended, and their response to the individual treatments was evaluated. Evaluation was carried out using a scale from 0 to 100. 100 means no emergence of the plants, or complete destruction of at least the aerial moieties, and 0 means no damage, or normal course of growth. […] The plants used in the greenhouse experiments were of the following species: [table]

Another experiment relates to CHEAL. Kind of experiment: Greenhouse test, post-emergence treatment. In kind it is in vivo, Chenopodium album. As to conditions: 0.0312 kg/ha.
Source text: as §1

A further experiment deals with BRSNW. Kind of experiment: Greenhouse test, post-emergence treatment. As to conditions: 0.0312 kg/ha. In kind it is in vivo, Winter rape.
Source text: as §1

For experiment [2], the system named is AMARE. Kind of experiment: Greenhouse test, pre-emergence treatment. The class given is in vivo, Amaranthus retroflexus. As to conditions: for herbicidal activity: 0.5 kg/ha. The source says: (§2) The seeds of the test plants were sown separately for each species. For the pre-emergence treatment, the active ingredients, which had been suspended or emulsified in water, were applied directly after sowing by means of finely distributing nozzles. The containers were irrigated gently to promote germination and growth and subsequently covered with transparent plastic hoods until the plants had rooted. This cover caused uniform germination of the test plants, unless this had been impaired by the active ingredients. Depending on the species, the plants were kept at 10-25° C. or 20-35° C., respectively. The test period extended over 2 to 4 weeks. During this time, the plants were tended, and their response to the individual treatments was evaluated. Evaluation was carried out using a scale from 0 to 100. 100 means no emergence of the plants, or complete destruction of at least the aerial moieties, and 0 means no damage, or normal course of growth. […] The plants used in the greenhouse experiments were of the following species: [table]

A further experiment concerns ALOMY. Kind of experiment: Greenhouse test, pre-emergence treatment. The class given is in vivo, Alopecurus myosuroides.
Source text: as §2

A further experiment has as its system SETFA. As to the kind of experiment: Greenhouse test, pre-emergence treatment. In kind it is in vivo, Setaria faberi. As to conditions: 0.5 kg/ha, SETFA.
Source text: as §2

Another experiment relates to APESV. As to the kind of experiment: Greenhouse test, pre-emergence treatment. In kind it is in vivo, Apera spica-venti. As to conditions: 250 g/ha.
Source text: as §2

The test system of a further experiment is ABUTH. Kind of experiment: Greenhouse test, post-emergence treatment. The class given is in vivo, Abutilon theophrasti.
Source text: as §1

For the next experiment, the system named is SETVI. As to the kind of experiment: Greenhouse test, post-emergence treatment. In kind it is in vivo, Setaria viridis. To be noted: 125 g/ha, STEVI.
Source text: as §1

[3] abbreviates: 500 g/ha, stated in words without grade.

`CC(C)(F)c1nc(N)nc(Nc2c(F)ccc3c2OCO3)n1` [Example 1, N2-(5-fluoro-1,3-benzodioxo1-4-yl)-6-(1-fluoro-1-methyl-ethyl)-1,3,5-triazine-2,4-diamine]: the values for the herbicidal activity entry in the experiment on AMARE [1] (0.0312 kg/ha), in the experiment with CHEAL and in the experiment with BRSNW were “very good (a very good herbicidal activity is given at values of at least 85)”, “good (a good herbicidal activity is given at values of at least 70)” and “good (a good herbicidal activity is given at values of at least 70)”, respectively.

As to `CC(C)(F)c1nc(N)nc(Nc2c(Cl)ccc3c2OCO3)n1` [Example 2], the herbicidal activity result in the experiment on AMARE [2], in the experiment with ALOMY (0.5 kg/ha) and in the experiment with SETFA was “very good (a very good herbicidal activity is given at values of at least 85)” throughout.

As to `CC(C)(F)c1nc(N)nc(Nc2c(Br)ccc3c2OCO3)n1` [Example 3], the herbicidal activity result in the experiment on AMARE [2], in the experiment with ALOMY (0.5 kg/ha) and with SETFA was “very good (a very good herbicidal activity is given at values of at least 85)” in each case.

Consider `CC1(c2nc(N)nc(Nc3c(F)ccc4c3OCO4)n2)CCCCC1` [Example 6], for which the pest or weed control at 250 g/ha in the experiment with AMARE [2] (Amaranthus retroflexus, read-out: herbicidal activity, 250 g/ha) is at least 70%. Further, the herbicidal activity result in the experiment with ALOMY (250 g/ha) is given as “good (a good herbicidal activity is given at values of at least 70)”; in the experiment on APESV, “very good (a very good herbicidal activity is given at values of at least 85)”.

Consider `Nc1nc(Nc2c(Br)ccc3c2OC(F)(F)O3)nc(C2(Cl)CCCC2)n1` [Example 9], for which, in the experiment with AMARE [1] (500 g/ha), the herbicidal activity result is on record as “very good (a very good herbicidal activity is given at values of at least 85)”.

As for `Nc1nc(Nc2c(F)ccc3c2OCO3)nc(N2CCC2)n1` [Example 18], the herbicidal activity entry in the experiment with AMARE [1] (setting [3]) and with ABUTH (setting [3]) was “herbicidal activity” in each case.

`Nc1nc(Nc2c(F)ccc3c2OCO3)nc(N2CCCCC2)n1` [Example 21]: the herbicidal activity entry with AMARE [1] (500 g/ha) is listed as “very good (a very good herbicidal activity is given at values of at least 85)”; in the experiment with ABUTH (500 g/ha), “good (a good herbicidal activity is given at values of at least 70)”.

Turning to `CC(C)(F)c1nc(N)nc(Nc2c(F)c(F)cc3c2OCO3)n1` [Example 30], the herbicidal activity entry in the experiment on AMARE [1] (125 g/ha), with ABUTH (125 g/ha) and with SETVI was “very good (a very good herbicidal activity is given at values of at least 85)” each time.

The values are drawn from US9822105B2, “Diaminotriazine compounds as herbicides” (BASF SE, priority 2014, dated 2017).
